From patent publication US4209441A, “Anti-gastric secretion polypeptide” (American Home Products Corporation, priority 1979, dated 1980)
Where a name gives a salt, the structure may show the parent alone. Bridge positions count the residues as written; N and C are the ends. Square brackets hold non-standard residues; d marks the D form. Peptide text beside a SMILES is read from it.

Legend:
Type in all cases: in vivo, rat
insulin = test: Suppression of insulin in arginine-stimulated rats; conditions: for reduction in insulin in vivo (in words): tested in vivo by standard methods
Protocol: (§1) Albino male rats are administered Nembutol intraperitoneally at a dose of 50 mg/kg. Fifteen minutes later a subcutaneous injection of the test compound or physiological saline is administered. Ten minutes later 0.5 ml. of arginine (300 mg/ml, pH 7.2) is injected into the heart. Five minutes after receipt of the arginine the rats are decapitated and blood is collected into Trasylol-EDTA. An appropriate aliquot is assayed for insulin and glucagon.

glucagon = test: Suppression of glucagon in arginine-stimulated rats; conditions: for reduction in glucagon in vivo (in words): tested in vivo by standard methods
Protocol: as §1

[1] = tested on: gastric acid secretion (total acid output); test: Anti-secretory activity in pylorus-ligated rats (total acid output over four hours); conditions: for Percentage Inhibition (of Total Acid Output): i.d. administration, pylorus-ligated rats, 4 hr, versus control group
Protocol: The polypeptide of this invention was tested and found active parenterally (s.c.) in the following scientifically recognized, standard test for anti-secretory activity;
Male Charles River rats of Sprague-Dawley strain and 190 to 240 gm. body weight are food deprived for 24 hr. with water ad libitum until the test. Groups of ten rats each are assigned to either control or drug treatment. Pyloric ligation was performed under ether anesthesia through a midline laparotomy, and either control vehicle (0.25 methylcellulose) or drug in control vehicle was administered intraduodenally. The rats are sacrificed by CO2 asphyxiation four hours after pyloric ligation. The stomachs are removed and the gastric contents emptied into graduated centrifuge tubes. The gastric samples are centrifuged for 20 min. and those obviously contaminated by food, blood or feces are discarded. The volume of gastric fluid is recorded and the acid concentration of 1.0 ml. sample aliquots is measured by electrometric titration to pH 7.0 with 0.1 N NaOH. The calculated product of gastric volume (ml/4 hr.) and acid concentration (mEq/L) estimates the total acid output (TAO, mEq/4 hr.) over the four-hour test period.
An index of drug gastric antisecretory activity is reported at the end of the example illustrating its production. The results, expressed as percentage inhibition, show the reduction of acid secretion in drug-treated compared to control groups, based upon i.d. administration of 2 mg/kg and 0.5 mg/kg of the tested compound. In addition, the effect of the polypeptide in the control of insulin and glucagon secretion is reported at a dose of 750 micrograms per kilogram.

[2] = listed as compound of this invention
[3] = listed as polypeptide of the invention

| SMILES | dose that effectively inhibits secretion of insulin (insulin; same test procedure) | dose that effectively inhibits secretion of glucagon (glucagon; same test procedure) | Insulin (insulin; 750 μg/kg subcutaneous, arginine-stimulated rats, blood 15 min after dosing, control 283 ± 28) | reduction in insulin in vivo (in words) (insulin; [2]) | reduction in insulin in vivo (in words) (insulin; [3]) | Percentage Inhibition (of Total Acid Output) ([1]; 0.5 mg/kg) | Percentage Inhibition (of Total Acid Output) ([1]; 2 mg/kg) | anti-secretory activity (in words) ([1]; parenterally (s.c.)) | Glucagon (glucagon; 750 μg/kg subcutaneous, arginine-stimulated rats, blood 15 min after dosing, control 55 ± 5) | reduction in glucagon in vivo (in words) (glucagon; [2]) | reduction in glucagon in vivo (in words) (glucagon; [3]) |
| --- | --- | --- | --- | --- | --- | --- | --- | --- | --- | --- | --- |
| C[C@H](N)C(=O)NCC(=O)N[C@H]1CSSC[C@@H](C(=O)O)NC(=O)[C@H](CO)NC(=O)[C@H]([C@@H](C)O)NC(=O)[C@H](Cc2ccccc2)NC(=O)[C@H]([C@@H](C)O)NC(=O)[C@H](CCCCN)NC(=O)[C@H](Cc2c[nH]c3ccccc23)NC(=O)[C@H](Cc2ccccc2)NC(=O)[C@H](Cc2ccccc2)NC(=O)[C@H](CC(N)=O)NC(=O)[C@H](CCCCN)NC1=O [Somatostatin, reference compound] | about 10 micrograms per kilogram | about 10 micrograms per kilogram |  |  |  |  |  |  |  |  |  |
| C[C@H](N)C(=O)NCC(=O)N[C@H]1CSSC[C@@H](C(=O)O)NC(=O)[C@H](CO)NC(=O)[C@H]([C@@H](C)O)NC(=O)[C@H](Cc2ccc(O)cc2)NC(=O)[C@H]([C@@H](C)O)NC(=O)[C@H](CCCCN)NC(=O)[C@@H](Cc2c[nH]c3ccccc23)NC(=O)[C@H](Cc2ccccc2)NC(=O)[C@H](Cc2ccccc2)NC(=O)[C@H](CC(N)=O)NC(=O)[C@H](CCCCN)NC1=O [Example 5, L-alanylglycyl-L-cysteinyl-L-lysyl-L-asparaginyl-L-phenylalanyl-L-phenylalanyl-D-tryptophyl-L-lysyl-L-threonyl-L-tyrosyl-L-threonyl-L-seryl-L-cysteine cyclic (3-14)-disulfide, triacetate-salt] (H-AGCKNFF[dW]KTYTSC-OH; disulfide 3-14) |  |  | 238 ± 42 μU/ml | no meaningful reduction | without materially affecting | 38% | 68% | active | 35 ± 9 pg/mL | no meaningful reduction | without materially affecting |
